# Experiments:
# [1] = target: KRAS G12C (Homo sapiens (Human), UniProt P01116+P62937, G12C); experiment: Ras-Raf disruption/FRET/MOA assay (BRAF RBD, Cyclophilin A); type: biochemical; details: read-out: KRAS G12C FRET IC50
# Outline: (§1)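 First, 25 μM Cyclophilin A, 12.5 nM His6-Ras-GMPPNP and 50 nM GST-BRAF RBD are mixed with diluted compound at pH 7.3. Next, 3 h at 25° C. Then 10 nM anti-His Eu-W1024 plus 50 nM anti-GST allophycocyanin for 1.5 h before TR-FRET reading.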
# [2] = target: NRAS WT (Homo sapiens (Human), UniProt P01111+P62937); experiment: as above; type: biochemical
# Sequence of NRAS WT (P01111 whole entry): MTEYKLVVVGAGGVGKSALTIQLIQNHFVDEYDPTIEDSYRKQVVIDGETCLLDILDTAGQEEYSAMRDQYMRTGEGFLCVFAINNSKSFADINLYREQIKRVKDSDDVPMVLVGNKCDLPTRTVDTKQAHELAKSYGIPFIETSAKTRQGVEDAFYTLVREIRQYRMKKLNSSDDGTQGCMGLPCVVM
# Sequence of NRAS WT (P62937 whole entry): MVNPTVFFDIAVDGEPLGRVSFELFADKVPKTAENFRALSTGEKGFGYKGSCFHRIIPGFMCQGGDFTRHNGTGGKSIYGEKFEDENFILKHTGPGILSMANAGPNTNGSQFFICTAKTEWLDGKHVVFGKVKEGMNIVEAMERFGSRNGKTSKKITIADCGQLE
# Outline: (§2)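 TR-FRET read after 1.5 h with 10 nM anti-His Eu-W1024 and 50 nM anti-GST APC, following 3 h at 25 °C of GMPPNP-loaded His6-Ras (12.5 nM), GST-BRAF RBD (50 nM) and Cyclophilin A (25 μM) with compound from 30 μM final, 10 points, 3-fold. IC50 reported; pH 7.3 HEPES, 100 mM NaCl.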
# [3] = target: KRAS G12D (Homo sapiens (Human), UniProt P01116+P62937, G12D); experiment: as above; type: biochemical; details: read-out: KRAS G12D FRET IC50
# Sequence of KRAS G12D (P01116 other isoform, or with tags, fused parts or gaps G12D): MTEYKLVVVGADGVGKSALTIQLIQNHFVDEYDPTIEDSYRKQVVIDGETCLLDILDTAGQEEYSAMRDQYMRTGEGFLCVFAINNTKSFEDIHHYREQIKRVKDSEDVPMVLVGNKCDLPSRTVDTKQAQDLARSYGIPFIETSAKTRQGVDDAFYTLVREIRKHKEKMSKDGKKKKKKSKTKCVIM
# Sequence of KRAS G12D (P62937 whole entry): as the sequence (P62937 whole entry) above
# Outline: as §1
# [4] = target: KRAS WT (Homo sapiens (Human), UniProt P01116+P62937); experiment: as above; type: biochemical; details: read-out: KRAS WT FRET data IC50
# Sequence of KRAS WT (P01116 other isoform, or with tags, fused parts or gaps): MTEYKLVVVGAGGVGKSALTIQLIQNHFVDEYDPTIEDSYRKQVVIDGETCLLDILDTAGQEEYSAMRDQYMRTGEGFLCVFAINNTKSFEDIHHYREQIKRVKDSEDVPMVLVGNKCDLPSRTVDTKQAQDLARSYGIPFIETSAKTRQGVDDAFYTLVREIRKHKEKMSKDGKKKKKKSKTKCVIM
# Sequence of KRAS WT (P62937 whole entry): as the sequence (P62937 whole entry) above
# Outline: as §1
# [5] = target: KRAS G13D (Homo sapiens (Human), UniProt P01116+P62937, G13D); experiment: as above; type: biochemical; details: read-out: KRAS G13D FRET data IC50
# Sequence of KRAS G13D (P01116 other isoform, or with tags, fused parts or gaps G13D): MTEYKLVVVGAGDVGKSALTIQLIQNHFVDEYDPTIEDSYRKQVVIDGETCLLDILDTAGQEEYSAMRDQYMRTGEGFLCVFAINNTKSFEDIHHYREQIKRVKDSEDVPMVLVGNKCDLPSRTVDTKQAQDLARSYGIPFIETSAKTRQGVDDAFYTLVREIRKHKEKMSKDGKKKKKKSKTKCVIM
# Sequence of KRAS G13D (P62937 whole entry): as the sequence (P62937 whole entry) above
# Outline: as §1
# [6] = target: KRAS Q61H (Homo sapiens (Human), UniProt P01116+P62937, Q61H); experiment: as above; type: biochemical
# Outline: as §1
# [7] = target: KRAS G12V (Homo sapiens (Human), UniProt P01116+P62937, G12V); experiment: as above; type: biochemical; details: read-out: KRAS G12V FRET IC50
# Sequence of KRAS G12V (P01116 other isoform, or with tags, fused parts or gaps G12V): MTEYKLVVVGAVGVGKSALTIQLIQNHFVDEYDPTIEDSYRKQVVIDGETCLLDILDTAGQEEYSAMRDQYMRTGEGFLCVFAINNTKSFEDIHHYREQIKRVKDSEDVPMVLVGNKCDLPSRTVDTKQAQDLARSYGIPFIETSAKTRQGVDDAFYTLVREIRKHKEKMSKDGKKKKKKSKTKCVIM
# Sequence of KRAS G12V (P62937 whole entry): as the sequence (P62937 whole entry) above
# Outline: as §1
# [8] = target: NRAS Q61K (Homo sapiens (Human), UniProt P01111+P62937, Q61K); experiment: as above; type: biochemical
# Sequence of NRAS Q61K (P01111 whole entry Q61K): as the sequence (P01111 whole entry) above, with Q61K counted along it
# Sequence of NRAS Q61K (P62937 whole entry): as the sequence (P62937 whole entry) above
# Outline: as §2
# [9] = target: NRAS Q61R (Homo sapiens (Human), UniProt P01111+P62937, Q61R); experiment: as above; type: biochemical
# Sequence of NRAS Q61R (P01111 whole entry Q61R): as the sequence (P01111 whole entry) above, with Q61R counted along it
# Sequence of NRAS Q61R (P62937 whole entry): as the sequence (P62937 whole entry) above
# Outline: as §2
# [10] = target: KRAS G13C (Homo sapiens (Human), UniProt P01116+P62937, G13C); experiment: as above; type: biochemical; details: read-out: KRAS G13C FRET IC50
# Sequence of KRAS G13C (P01116 other isoform, or with tags, fused parts or gaps G13C): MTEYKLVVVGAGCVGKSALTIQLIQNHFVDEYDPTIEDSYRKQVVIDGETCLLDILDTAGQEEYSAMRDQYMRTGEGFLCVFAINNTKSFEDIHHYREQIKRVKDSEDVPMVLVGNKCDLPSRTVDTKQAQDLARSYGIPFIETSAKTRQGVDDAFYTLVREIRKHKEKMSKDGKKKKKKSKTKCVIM
# Sequence of KRAS G13C (P62937 whole entry): as the sequence (P62937 whole entry) above
# Outline: as §1
# [11] = target: KRAS WT binding to BRAF RBD (Homo sapiens (Human), UniProt P01116+P62937); experiment: Ras-Raf disruption/FRET/MOA assay, KRAS WT; type: biochemical
# Sequence of KRAS WT binding to BRAF RBD (P01116 other isoform, or with tags, fused parts or gaps): as the sequence (P01116 other isoform, or with tags, fused parts or gaps) above
# Sequence of KRAS WT binding to BRAF RBD (P62937 whole entry): as the sequence (P62937 whole entry) above
# Outline: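 Compounds (top 30 μM, 3-fold, 10 points) promote Cyclophilin A (25 μM) ternary complex with His6-Ras-GMPPNP (12.5 nM), disrupting GST-BRAF RBD (50 nM) binding; 3 h, 25°C, 25 mM HEPES pH 7.3, 100 mM NaCl, 5 mM MgCl2. Detection reagents (Eu anti-His 10 nM, APC anti-GST 50 nM) added for 1.5 h; IC50 reported.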
# [12] = test system: Capan-1 cells (K-Ras G12V); experiment: CellTiter-Glo cell viability, Capan-1; type: cell-based, human; details: Homo sapiens, CAPAN-1, 120 h, K-Ras G12V, 5-day treatment; read-out: Capan-1 Cell Viability IC50
# Outline: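 Viability is read as luminescence after five days of compound exposure, with plates first equilibrated to room temperature for roughly 30 minutes. Each signal is expressed as a percentage of the mean DMSO control, and curves are fitted by four-parameter logistic regression.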
# [13] = target: K-Ras G12C(GMP-PNP) binding to BRAF RBD (Homo sapiens (Human), UniProt P01116+P62937, G12C); experiment: Disruption of BRAF RBD interaction with K-Ras (FRET / MOA assay), K-Ras G12C; type: biochemical; details: read-out: KRAS G12C FRET IC50
# Sequence of K-Ras G12C(GMP-PNP) binding to BRAF RBD (P01116 other isoform, or with tags, fused parts or gaps G12C): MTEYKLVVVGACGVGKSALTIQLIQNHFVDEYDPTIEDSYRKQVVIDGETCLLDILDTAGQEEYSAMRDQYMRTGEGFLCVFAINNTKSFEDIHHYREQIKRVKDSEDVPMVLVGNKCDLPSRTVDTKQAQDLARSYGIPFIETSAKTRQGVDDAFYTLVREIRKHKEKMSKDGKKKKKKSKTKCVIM
# Sequence of K-Ras G12C(GMP-PNP) binding to BRAF RBD (P62937 whole entry, canonical isoform): as the sequence (P62937 whole entry) above
# Outline: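 Incubation of compound (up to 30 μM final, 3-fold steps) with GMP-PNP-type loaded Ras isoform, cyclophilin A and BRAF RBD ran 3 h at 25° C, followed by 1.5 h with detection antibodies. Disruption appears as a reduced TR-FRET ratio compared with DMSO controls, expressed as IC50.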
# [14] = target: KRAS G12V binding to BRAF RBD (Homo sapiens (Human), UniProt P01116+P62937, G12V); experiment: Ras-Raf disruption/FRET/MOA assay, KRAS G12V; type: biochemical; details: read-out: KRAS G12V FRET IC50
# Sequence of KRAS G12V binding to BRAF RBD (P01116 other isoform, or with tags, fused parts or gaps G12V): as the sequence (P01116 other isoform, or with tags, fused parts or gaps G12V) above
# Sequence of KRAS G12V binding to BRAF RBD (P62937 whole entry): as the sequence (P62937 whole entry) above
# Outline: (§3)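 Cpd 10-pt 3-fold dilution, top 30 μM final; Ras/CypA/BRAF RBD mix 3 h, 25° C. Add anti-His Eu-W1024 10 nM + anti-GST APC 50 nM final, 1.5 h. Readout TR-FRET ratio decrease vs DMSO → IC50.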
# [15] = target: KRAS G12S binding to BRAF RBD (Homo sapiens (Human), UniProt P01116+P62937, G12S); experiment: Ras-Raf disruption/FRET/MOA assay, KRAS G12S; type: biochemical
# Sequence of KRAS G12S binding to BRAF RBD (P01116 other isoform, or with tags, fused parts or gaps G12S): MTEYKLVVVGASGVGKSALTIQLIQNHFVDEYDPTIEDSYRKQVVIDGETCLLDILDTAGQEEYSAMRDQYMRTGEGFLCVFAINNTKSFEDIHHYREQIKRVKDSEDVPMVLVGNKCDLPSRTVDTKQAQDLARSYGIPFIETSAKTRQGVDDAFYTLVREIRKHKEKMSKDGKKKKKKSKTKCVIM
# Sequence of KRAS G12S binding to BRAF RBD (P62937 whole entry): as the sequence (P62937 whole entry) above
# Outline: as §3
# Sequence of KRAS G12C (P01116-2 other isoform, or with tags, fused parts or gaps G12C): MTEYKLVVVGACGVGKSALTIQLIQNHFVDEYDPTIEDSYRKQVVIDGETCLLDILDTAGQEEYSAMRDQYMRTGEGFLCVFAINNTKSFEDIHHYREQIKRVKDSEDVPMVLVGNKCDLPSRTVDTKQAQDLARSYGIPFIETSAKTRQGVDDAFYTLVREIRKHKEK
# Sequence of KRAS G12C (P62937 whole entry): as the sequence (P62937 whole entry) above
SMILES,IC50 [1],IC50 [2],IC50 [3],IC50 [4],IC50 [5],IC50 [6],IC50 [7],IC50 [8],IC50 [9],IC50 [10],IC50 [11],IC50 [12],IC50 [13],IC50 [14],IC50 [15]
CCn1c(-c2cccnc2[C@H](C)OC)c2c3cc(ccc31)-c1csc(n1)C[C@H](NC(=O)[C@H](C(C)C)N(C)C(=O)N1CC[C@]3(CCNC3=O)C1)C(=O)N1CCC[C@H](N1)C(=O)OCC(C)(C)C2 [Compound A479],100 to 1000 nM,100 to 1000 nM,1000 to 10000 nM,1000 to 10000 nM,1000 to 10000 nM,100 to 1000 nM,1000 to 10000 nM,100 to 1000 nM,1000 to 10000 nM,1000 to 10000 nM,10 to 100 nM,1000 to 10000 nM,< 10 nM,10 to 100 nM,10 to 100 nM
CCn1c(-c2cccnc2[C@H](C)OC)c2c3cc(ccc31)-c1csc(n1)C[C@H](NC(=O)[C@H](C(C)C)N(C)C(=O)N1CCC[C@H](N(C)C)CC1)C(=O)N1CCC[C@H](N1)C(=O)OCC(C)(C)C2 [Compound A493],10 to 100 nM,10 to 100 nM,100 to 1000 nM,10 to 100 nM,100 to 1000 nM,10 to 100 nM,100 to 1000 nM,,100 to 1000 nM,100 to 1000 nM,10 to 100 nM,100 to 1000 nM,10 to 100 nM,10 to 100 nM,10 to 100 nM
CCn1c(-c2cccnc2[C@H](C)OC)c2c3cc(ccc31)-c1csc(n1)C[C@H](NC(=O)[C@H](C(C)C)N(C)C(=O)N(C)C1(C)COC1)C(=O)N1CCC[C@H](N1)C(=O)OCC(C)(C)C2 [Compound A527],100 to 1000 nM,100 to 1000 nM,1000 to 10000 nM,100 to 1000 nM,1000 to 10000 nM,100 to 1000 nM,1000 to 10000 nM,100 to 1000 nM,100 to 1000 nM,1000 to 10000 nM,10 to 100 nM,10 to 100 nM,< 10 nM,10 to 100 nM,10 to 100 nM
CCn1c(-c2cccnc2[C@H](C)OC)c2c3cc(ccc31)-c1csc(n1)C[C@H](NC(=O)[C@H](C(C)C)N(C)C(=O)N1CCN3C(=O)CN(C)C[C@H]3C1)C(=O)N1CCC[C@H](N1)C(=O)OCC(C)(C)C2 [Compound A537],10 to 100 nM,10 to 100 nM,100 to 1000 nM,10 to 100 nM,100 to 1000 nM,10 to 100 nM,100 to 1000 nM,,100 to 1000 nM,100 to 1000 nM,10 to 100 nM,10 to 100 nM,10 to 100 nM,10 to 100 nM,10 to 100 nM
CCn1c(-c2cccnc2[C@H](C)OC)c2c3cc(ccc31)-c1csc(n1)C[C@H](NC(=O)[C@H](C(C)C)N(C)C(=O)N1CC3(CCN(C)C3)C1)C(=O)N1CCC[C@H](N1)C(=O)OCC(C)(C)C2 [Compound A602],100 to 1000 nM,100 to 1000 nM,1000 to 10000 nM,100 to 1000 nM,100 to 1000 nM,100 to 1000 nM,100 to 1000 nM,100 to 1000 nM,100 to 1000 nM,100 to 1000 nM,10 to 100 nM,100 to 1000 nM,10 to 100 nM,10 to 100 nM,10 to 100 nM

# Reference: US20250195521A1 (Revolution Medicines, Inc., priority 2020, published 2025)
